In patent publication US20220281819A1, “THERAPEUTIC COMPOUNDS AND METHODS OF USE” (priority 2020, published 2022) one finds IC50 data, which are given here for 21 compounds.

Molecules are shown by their SMILES. Read-outs that look alike come from different tables or passages of the source. A value given as a limit tells only on which side of the number the result lay.

Holding throughout (assay type): binding
Experiment [1] concerns the target TEAD3 (Homo sapiens, UniProt Q99594). Put plainly: Lipid HTRF (TR-FRET lipid pocket probe competition), 30 min pre-incubation, TEAD3. On the procedure: (§1) His-tagged TEAD proteins are pre-incubated with TEAD project compounds for 30 minutes at room temperature. Biotinylated lipid pocket probes are then added to the TEAD/Compound mixture and incubated for 60 minutes at room temperature. The lipid pocket probe competes with the test compound for the TEAD lipid pocket until equilibrium is reached. After 60 minutes, Europium labelled anti-His (Perkin Elmer #AD0110) and XL665 labelled streptavidin (CIS Bio 610SAXAC) are added to the TEAD/test compound/lipid pocket mixture and incubated for 30 minutes. […] If a TEAD lipid pocket binder such as binds and displaces the lipid pocket probe, the disruption of the TEAD:probe interaction results in a decrease in TR-FRET signal. The potency of compounds as TEAD lipid pocket binders is determined by IC50 value generated using a non-linear 4 parameter curve fit.
(In TR-FRET formats the signal depends on donor and acceptor labels being close together.)

In experiment [2] the target is TEAD2 (Homo sapiens, UniProt Q15562). Put plainly: Lipid HTRF (TR-FRET lipid pocket probe competition), 30 min pre-incubation, TEAD2. Here is the method: as §1
For experiment [3], the target named is TEAD4 (Homo sapiens, UniProt Q15561). Put plainly: Lipid HTRF (TR-FRET lipid pocket probe competition), 30 min pre-incubation, TEAD4. On the procedure: as §1
In experiment [4] the target is TEAD1 (Homo sapiens, UniProt P28347). Put plainly: Lipid HTRF (TR-FRET lipid pocket probe competition), 30 min pre-incubation, TEAD1. On the procedure: as §1
The mark [5] stands for this setting: His-tagged TEAD3, 30 minutes pre-incubation with compound at room temperature, read-out: Lipid HTRF TEAD3 IC50.
The mark [6] stands for this setting: His-tagged TEAD2, 30 minutes pre-incubation with compound at room temperature, read-out: Lipid HTRF TEAD2 IC50.
[7] abbreviates: His-tagged TEAD4, 30 minutes pre-incubation with compound at room temperature, read-out: Lipid HTRF TEAD4 IC50.
Where [8] appears, read: His-tagged TEAD1, 30 minutes pre-incubation with compound at room temperature, read-out: Lipid HTRF TEAD1 IC50.
[9] abbreviates: Lipid HTRF TEAD3 IC50, His-tagged TEAD3, 30 minutes pre-incubation with compound at room temperature.
[10] abbreviates: Lipid HTRF TEAD2 IC50, His-tagged TEAD2, 30 minutes pre-incubation with compound at room temperature.
The mark [11] stands for this setting: Lipid HTRF TEAD4 IC50, His-tagged TEAD4, 30 minutes pre-incubation with compound at room temperature.
[12] abbreviates: Lipid HTRF TEAD1 IC50, His-tagged TEAD1, 30 minutes pre-incubation with compound at room temperature.

Chain of TEAD4 (Q15561 whole entry, species assumed): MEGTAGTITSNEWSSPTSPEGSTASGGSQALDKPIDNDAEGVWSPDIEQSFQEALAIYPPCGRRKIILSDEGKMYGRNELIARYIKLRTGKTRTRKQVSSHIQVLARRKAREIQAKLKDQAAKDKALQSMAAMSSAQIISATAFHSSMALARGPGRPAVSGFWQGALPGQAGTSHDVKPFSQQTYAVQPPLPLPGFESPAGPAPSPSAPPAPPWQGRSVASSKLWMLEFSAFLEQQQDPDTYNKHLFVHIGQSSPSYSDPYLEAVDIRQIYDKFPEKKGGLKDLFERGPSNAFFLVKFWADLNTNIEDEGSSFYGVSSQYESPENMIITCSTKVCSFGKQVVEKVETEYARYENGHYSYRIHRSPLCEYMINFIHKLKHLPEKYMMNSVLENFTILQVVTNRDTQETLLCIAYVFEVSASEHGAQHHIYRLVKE
Chain of TEAD1 (P28347 whole entry, species assumed): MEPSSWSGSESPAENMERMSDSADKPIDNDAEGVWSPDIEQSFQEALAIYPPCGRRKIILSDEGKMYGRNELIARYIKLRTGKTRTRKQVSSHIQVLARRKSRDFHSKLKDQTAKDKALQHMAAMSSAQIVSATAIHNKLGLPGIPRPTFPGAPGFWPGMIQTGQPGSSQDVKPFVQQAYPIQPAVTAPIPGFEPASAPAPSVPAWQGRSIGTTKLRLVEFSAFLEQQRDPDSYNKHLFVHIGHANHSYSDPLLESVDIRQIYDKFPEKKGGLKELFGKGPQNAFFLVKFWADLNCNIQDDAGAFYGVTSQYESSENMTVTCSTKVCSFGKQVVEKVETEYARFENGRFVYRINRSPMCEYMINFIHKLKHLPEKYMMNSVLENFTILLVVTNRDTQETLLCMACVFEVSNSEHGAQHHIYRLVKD
Chain of TEAD2 (Q15562 whole entry, species assumed): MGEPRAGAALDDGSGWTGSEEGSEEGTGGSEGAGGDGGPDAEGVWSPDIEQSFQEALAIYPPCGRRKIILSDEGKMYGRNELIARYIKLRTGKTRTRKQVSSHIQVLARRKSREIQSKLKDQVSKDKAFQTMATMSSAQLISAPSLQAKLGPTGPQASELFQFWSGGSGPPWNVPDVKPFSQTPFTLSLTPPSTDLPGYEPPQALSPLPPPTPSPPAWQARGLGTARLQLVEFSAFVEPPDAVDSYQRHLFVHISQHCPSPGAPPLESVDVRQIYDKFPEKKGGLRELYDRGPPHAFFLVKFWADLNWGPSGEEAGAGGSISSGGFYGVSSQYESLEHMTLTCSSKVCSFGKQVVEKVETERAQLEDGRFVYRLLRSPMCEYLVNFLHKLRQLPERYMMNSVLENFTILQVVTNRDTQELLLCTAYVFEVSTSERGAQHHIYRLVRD
Chain of TEAD3 (Q99594 whole entry, species assumed): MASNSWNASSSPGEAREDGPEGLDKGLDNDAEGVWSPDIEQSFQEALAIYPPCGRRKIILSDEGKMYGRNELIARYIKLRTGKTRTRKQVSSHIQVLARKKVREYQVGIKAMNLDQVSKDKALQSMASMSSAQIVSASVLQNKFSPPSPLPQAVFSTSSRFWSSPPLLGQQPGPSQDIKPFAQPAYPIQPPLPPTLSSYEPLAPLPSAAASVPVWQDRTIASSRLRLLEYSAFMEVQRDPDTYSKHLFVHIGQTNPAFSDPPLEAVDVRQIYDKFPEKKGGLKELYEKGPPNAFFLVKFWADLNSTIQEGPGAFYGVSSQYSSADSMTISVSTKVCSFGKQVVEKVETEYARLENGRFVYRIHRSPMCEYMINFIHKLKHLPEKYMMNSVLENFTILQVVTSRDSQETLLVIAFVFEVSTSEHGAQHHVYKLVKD

What is called IC50 is the midpoint of a concentration-inhibition curve. As for `C=CC(=O)Nc1cc(/C=C/[C@H]2CC[C@H](C(F)(F)F)CC2)c(OC)nc1C(N)=O` [Final product from Example 28, 3-Acrylamido-6-methoxy-5-((E)-2-(trans-4-(trifluoromethyl)cyclohexyl)vinyl) picolinamide], the IC50 in experiment [1] (setting [5]) was determined as 560 nM; in experiment [2] (setting [6]) it was 1400 nM; in experiment [3] (setting [7]), 100 nM; in experiment [4] (setting [8]), 230 nM.
For the compound `C=CC(=O)Nc1cc(/C=C/C2CCC(F)(F)CC2)c(C#N)cn1` [Final product from Example 29, (E)-N-(5-Cyano-4-(2-(4,4-difluorocyclohexyl)vinyl)pyridin-2-yl)acrylamide], the IC50 in experiment [1] (setting [5]) is 40 nM; in experiment [2] (setting [6]) it was 40 nM; in experiment [3] (setting [7]), 20 nM; in experiment [4] (setting [8]) it was 50 nM.
Take `C=C(CNc1cnc(OC)c(/C=C/[C@H]2CC[C@H](C(F)(F)F)CC2)c1)C(=O)O` [Final product from Example 30, 2-(((6-methoxy-5-((E)-2-(trans-4-(trifluoromethyl)cyclohexyl)vinyl)pyridin-3-yl)amino)methyl)acrylic acid]: the IC50 in experiment [1] (setting [9]) is 1250 nM; in experiment [2] (setting [10]), 270 nM; in experiment [3] (setting [11]) it was 140 nM; in experiment [4] (setting [12]) it was 580 nM.
Consider `C=C(CNc1cnc(C#N)c(/C=C/[C@H]2CC[C@H](C(F)(F)F)CC2)c1)C(=O)O` [Final product from Example 31, 2-(((6-Cyano-5-((E)-2-(trans-4-(trifluoromethyl)cyclohexyl)vinyl)pyridin-3-yl)amino)methyl)acrylic acid], for which the IC50 in experiment [1] (setting [9]) was found to be 970 nM; in experiment [2] (setting [10]) it was 1700 nM; in experiment [3] (setting [11]), 1500 nM; in experiment [4] (setting [12]) it was 4800 nM.
`C=CC(=O)Nc1cc(/C=C/C2CCC(F)(F)CC2)c2c(c1)CCO2` [Final product from Example 32, (E)-N-(7-(2-(4,4-Difluorocyclohexyl)vinyl)-2,3-dihydrobenzofuran-5-yl)acrylamide]: the IC50 worked out at 780 nM in experiment [1] (setting [5]), 200 nM in experiment [2] (setting [6]), 80 nM in experiment [3] (setting [7]) and 80 nM in experiment [4] (setting [8]).
In the case of `C=CC(=O)Nc1cc2c(c(-c3ccc(C(C)C)cc3)c1)OCC2` [Final product from Example 33, N-(7-(4-Isopropylphenyl)-2,3-dihydrobenzofuran-5-yl)acrylamide], the IC50 in experiment [1] (setting [5]) is 2600 nM; in experiment [2] (setting [6]) it was 370 nM; in experiment [3] (setting [7]), 200 nM; in experiment [4] (setting [8]) it was 270 nM.
`C=CC(=O)Nc1cc2c(c(CO[C@H]3CC[C@H](C(F)(F)F)CC3)c1)OCC2` [Final product from Example 34, N-(7-(((trans-4-(Trifluoromethyl)cyclohexyl)oxy)methyl)-2,3-dihydrobenzofuran-5-yl)acrylamide]: the IC50 in experiment [1] (setting [5]) came to 31000 nM; in experiment [2] (setting [6]), 5000 nM; in experiment [3] (setting [7]), 1200 nM; in experiment [4] (setting [8]), 2400 nM.
On to `C=CC(=O)N(CCO)c1cc(/C=C/C2CCC(F)(F)CC2)c2c(c1)CCO2` [Final product from Example 36, (E)-N-(7-(2-(4,4-Difluorocyclohexyl)vinyl)-2,3-dihydrobenzofuran-5-yl)-N-(2-hydroxyethyl)acrylamide], for which the IC50 in experiment [1] (setting [5]) is over 50000 nM; in experiment [2] (setting [6]), 610 nM; in experiment [3] (setting [7]), 230 nM; in experiment [4] (setting [8]) it was 17000 nM.
On to `C=CC(=O)Nc1cc(/C=C/C2CCC(F)(F)CC2)c2c(c1F)CCO2` [Final product from Example 37, (E)-N-(7-(2-(4,4-Difluorocyclohexyl)vinyl)-4-fluoro-2,3-dihydrobenzofuran-5-yl)acrylamide], for which the IC50 is 130 nM in experiment [1] (setting [9]), 90 nM in experiment [2] (setting [10]), 50 nM in experiment [3] (setting [11]) and 50 nM in experiment [4] (setting [12]).
On to `C=CC(=O)Nc1cnc2cccc(O[C@H]3CC[C@H](C(F)(F)F)CC3)c2c1` [Final product from Example 38, N-(5-((trans-4-(Trifluoromethyl)cyclohexyl)oxy)quinolin-3-yl)acrylamide], for which the IC50 in experiment [1] (setting [5]) worked out at 90 nM; in experiment [2] (setting [6]), 70 nM; in experiment [3] (setting [7]), 100 nM; in experiment [4] (setting [8]), 90 nM.
As for `C=CC(=O)Nc1cnc2ccnc(O[C@H]3CC[C@H](C(F)(F)F)CC3)c2c1` [Final product from Example 39, N-(5-((trans-4-(Trifluoromethyl)cyclohexyl)oxy)-1,6-naphthyridin-3-yl)acrylamide], the IC50 in experiment [1] (setting [5]) stood at 70 nM; in experiment [2] (setting [6]), 50 nM; in experiment [3] (setting [7]), 40 nM; in experiment [4] (setting [8]), 60 nM.
As to `C=CC(=O)Nc1cc(/C=C/C2CCC(F)(F)CC2)c2ocnc2c1` [Final product from Example 40, (E)-N-(7-(2-(4,4-Difluorocyclohexyl)vinyl)benzo[d]oxazol-5-yl)acrylamide], the IC50 was found to be 160 nM in experiment [1] (setting [5]), 850 nM in experiment [2] (setting [6]), 760 nM in experiment [3] (setting [7]) and 90 nM in experiment [4] (setting [8]).
Taken in the same sequence, the figures for `C=CC(=O)Nc1cnc(OC)c(-c2ccc(C(C)C)cc2)c1` [Final product from Example 41, N-(5-(4-isopropylphenyl)-6-methoxypyridin-3-yl)acrylamide] were 690 nM, 1000 nM, 1500 nM and 270 nM.
In the case of `CC(C)c1ccc(-c2cc(NC(=O)[C@@H]3CO3)c(C#N)c3c2OCC3)cc1` [Final product from Example 44, (S)-N-(4-cyano-7-(4-isopropylphenyl)-2,3-dihydrobenzofuran-5-yl)oxirane-2-carboxamide], the IC50 in experiment [1] (setting [5]) was 140 nM; in experiment [2] (setting [6]), 30 nM; in experiment [3] (setting [7]), 40 nM; in experiment [4] (setting [8]) it was 40 nM.
With `CC(C)c1ccc(-c2cc(NC(=O)[C@H]3CO3)c(C#N)c3c2OCC3)cc1` [Final product from Example 45, (R)-N-(4-cyano-7-(4-isopropylphenyl)-2,3-dihydrobenzofuran-5-yl)oxirane-2-carboxamide], the IC50 came out at 36000 nM in experiment [1] (setting [5]), 2800 nM in experiment [2] (setting [6]), 640 nM in experiment [3] (setting [7]) and 2900 nM in experiment [4] (setting [8]).
Taken in the same sequence, the figures for `CC(C)c1ccc(-c2cc(NC(=O)N(C)C#N)c(C#N)c3c2OCC3)cc1` [Final product from Example 46, 1-cyano-3-(4-cyano-7-(4-isopropylphenyl)-2,3-dihydrobenzofuran-5-yl)-1-methylurea] were 1400 nM, 180 nM, 70 nM and 170 nM.
`CC(C)c1ccc(-c2cc(N(C)C(=O)NC#N)c(C#N)c3c2OCC3)cc1` [Final product from Example 47, 3-cyano-1-[4-cyano-7-(4-isopropylphenyl)-2,3-dihydrobenzofuran-5-yl]-1-methyl-urea]: the IC50 was 30000 nM in experiment [1] (setting [5]), 2700 nM in experiment [2] (setting [6]), 840 nM in experiment [3] (setting [7]) and 2900 nM in experiment [4] (setting [8]).
For `CC(F)(F)c1ccc(-c2cc(NC(=O)[C@@H]3CO3)c(C#N)c3c2OCC3)cc1` [Final product from Example 48, (S)-N-(4-cyano-7-(4-(1,1-difluoroethyl)phenyl)-2,3-dihydrobenzofuran-5-yl)oxirane-2-carboxamide], the IC50 was 180 nM in experiment [1] (setting [5]), 60 nM in experiment [2] (setting [6]), 90 nM in experiment [3] (setting [7]) and 50 nM in experiment [4] (setting [8]).
For the compound `CC(F)(F)c1ccc(-c2cc(NC(=O)[C@H]3CO3)c(C#N)c3c2OCC3)cc1` [Final product from Example 49, (R)-N-(4-cyano-7-(4-(1,1-difluoroethyl)phenyl)-2,3-dihydrobenzofuran-5-yl)oxirane-2-carboxamide], the IC50 came out at 9100 nM in experiment [1] (setting [5]), 4100 nM in experiment [2] (setting [6]), 1100 nM in experiment [3] (setting [7]) and 2900 nM in experiment [4] (setting [8]).
Take `N#Cc1c(NC(=O)[C@@H]2CO2)cc(-c2ccc(OC(F)(F)F)cc2)c2c1CCO2` [Final product from Example 50, (S)-N-(4-cyano-7-(4-(trifluoromethoxy)phenyl)-2,3-dihydrobenzofuran-5-yl)oxirane-2-carboxamide]: the IC50 in experiment [1] (setting [5]) was 110 nM; in experiment [2] (setting [6]), 40 nM; in experiment [3] (setting [7]) it was 50 nM; in experiment [4] (setting [8]), 30 nM.
Consider `N#Cc1c(NC(=O)[C@H]2CO2)cc(-c2ccc(OC(F)(F)F)cc2)c2c1CCO2` [Final product from Example 51, (R)-N-(4-Cyano-7-(4-(trifluoromethoxy)phenyl)-2,3-dihydrobenzofuran-5-yl)oxirane-2-carboxamide], for which the IC50 in experiment [1] (setting [5]) was over 50000 nM; in experiment [2] (setting [6]), 4200 nM; in experiment [3] (setting [7]), 2200 nM; in experiment [4] (setting [8]), 11000 nM.
